Data taken from paper PMC4868737, “BAY 1024767 blocks androgen receptor mutants found in castration-resistant prostate cancer patients” (Oncotarget, 2016).
Positions count from the first letter of the chain named.

Assays:
AR E709Y = molecular target: T1, AR E709Y (Homo sapiens, UniProt P10275, E710Y); assay: cell-based; details: IC50 (antagonistic activity)
T1 sequence (P10275 1-920 E710Y): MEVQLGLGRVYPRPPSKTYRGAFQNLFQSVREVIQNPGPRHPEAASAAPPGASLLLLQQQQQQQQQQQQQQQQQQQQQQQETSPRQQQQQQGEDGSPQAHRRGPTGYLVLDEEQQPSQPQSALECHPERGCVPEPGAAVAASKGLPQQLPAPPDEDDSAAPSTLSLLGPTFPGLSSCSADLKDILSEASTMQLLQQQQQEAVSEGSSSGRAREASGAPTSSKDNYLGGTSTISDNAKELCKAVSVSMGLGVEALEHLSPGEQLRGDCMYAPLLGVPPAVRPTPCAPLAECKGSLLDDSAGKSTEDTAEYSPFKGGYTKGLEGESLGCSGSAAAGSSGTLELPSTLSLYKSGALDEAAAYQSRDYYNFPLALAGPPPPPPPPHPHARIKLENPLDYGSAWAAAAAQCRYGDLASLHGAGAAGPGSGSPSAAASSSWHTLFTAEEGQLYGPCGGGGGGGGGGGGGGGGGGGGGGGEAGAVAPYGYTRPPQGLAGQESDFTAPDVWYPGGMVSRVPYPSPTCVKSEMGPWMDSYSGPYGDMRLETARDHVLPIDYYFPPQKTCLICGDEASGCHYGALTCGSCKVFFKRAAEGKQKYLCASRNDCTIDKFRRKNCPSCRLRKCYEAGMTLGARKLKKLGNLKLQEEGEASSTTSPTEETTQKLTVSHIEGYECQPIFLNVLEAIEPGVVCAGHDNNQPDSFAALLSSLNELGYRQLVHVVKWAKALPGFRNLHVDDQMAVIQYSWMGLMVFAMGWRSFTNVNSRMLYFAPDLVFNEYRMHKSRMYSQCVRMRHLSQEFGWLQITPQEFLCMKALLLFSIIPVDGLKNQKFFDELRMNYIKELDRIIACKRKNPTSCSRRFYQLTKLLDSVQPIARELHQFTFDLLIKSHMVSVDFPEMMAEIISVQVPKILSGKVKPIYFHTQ

Caco-2 permeation assay = assay type: in vitro ADME; details: human
Procedure: Caco-2 cells were seeded on 24-well insert plates, 0.4 μm pore size, and grown for 15 days. The test compound was dissolved in DMSO and added either to the apical (A) or basolateral (B) compartment at a final concentration of 2 μM. Before and after 2 h incubation, samples were taken from both compartments and analyzed by LC/MS/MS. The apparent permeability (Papp) was determined for each direction and the efflux ratio was calculated as Papp B-A/Papp A-B.

AR L701H = AR L701H (Homo sapiens, UniProt P10275, L701H/L702H); assay: cell-based; details: IC50 (antagonistic activity)
[1] = tested on: 22Rv1 (AR H874Y, splice variants); assay: Cell proliferation assay (Alamar Blue); assay type: cell-based; details: Homo sapiens, 22Rv1, 168 h
Procedure: (§1) All assays were performed in 96-well microtiter plates. […] LAPC-4 cells were plated at 4,000 cells/well, VCaP cells at 16,000 cells/well, LNCaP cells at 2,000 cells/well, 22Rv1 cells at 4,000 cells/well. After 1 day, the cells were treated with R1881 (0.1 nM final concentration, except for LAPC-4 where the final concentration was 1 nM) and compound (day 0). Cell number was determined by Alamar Blue staining (2 h). Fluorescence was measured in a Victor3 device (PerkinElmer, Waltham, MA, USA) with the excitation filter set at 530 nm and the emission filter set at 590 nm. C0 was defined as the signal measured at day 7 for cells treated only with R1881 and CI was defined as the signal measured at day 7 for cells grown without R1881 or compound.

LAPC-4 (AR wild-type) = assay: Cell proliferation assay (Alamar Blue); assay type: cell-based; details: Homo sapiens, LAPC4, 168 h
Procedure: as §1

LNCaP (AR 877A) = assay: Cell proliferation assay (Alamar Blue); assay type: cell-based; details: Homo sapiens, 168 h
Procedure: as §1

[2] = tested on: VCaP (AR wild-type, overexpressed); assay: Cell proliferation assay (Alamar Blue); assay type: cell-based; details: Homo sapiens, 168 h
Procedure: as §1

AR H874Y = AR H874Y (Homo sapiens, UniProt P10275, H875Y); assay: cell-based; details: IC50 (antagonistic activity)
AR M895V = molecular target: T2, AR M895V (Homo sapiens, UniProt P10275, M895V/M896V); assay: cell-based; details: IC50 (antagonistic activity)
T2 sequence (P10275 1-920 M895V/M896V): T1 sequence (P10275 1-920 E710Y) with Y710E, M895V, M896V

## CC(C)(O)COc1ccc(CN2C(=S)N(c3ccc(C#N)c(C(F)(F)F)c3)C(=O)C2(C)C)cn1 [BAY 1024767]
AR E709Y; R1881 0.1 nM
  IC50: 30 nM
AR E709Y; R1881 1 nM
  IC50: 130 nM
AR E709Y; R1881 10 nM
  IC50: 610 nM
Caco-2 permeation assay
  efflux ratio at 2 h, 2 μM: 0.61
Caco-2 permeation assay; 2 μM, 2 h
  Papp A→B at 2 h, 2 μM: 18.3 ×10⁻⁶ cm/s
AR L701H; R1881 1 nM
  IC50: 718 nM
AR L701H; R1881 10 nM
  IC50: 1380 nM
[1]
  GI50: 41 nM
LAPC-4 (AR wild-type)
  GI50: 46 nM
LNCaP (AR 877A)
  GI50: 221 nM
[2]
  GI50: 229 nM
AR H874Y; R1881 0.1 nM
  IC50: 31 nM
AR H874Y; R1881 1 nM
  IC50: 160 nM
AR M895V; R1881 0.1 nM
  IC50: 11 nM
AR M895V; R1881 1 nM
  IC50: 31 nM
AR M895V; R1881 10 nM
  IC50: 330 nM
